Experimental data as given in US6706663B2, “Herbicidal 3-heterocyclic substituted benzisothiazole and benzisoxazole compounds” (Wyeth, priority 2000, dated 2004).

Assays:
[1] = tested on: ABUTH (Abutilon theophrasti); experiment: Postemergence herbicidal evaluation; type: in vivo, Medic.
Method in brief: (§1)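 Visual 0–9 injury scores versus control plants, covering stand, vigour, malformation, size, chlorosis and general appearance, taken four to five weeks post-spray and averaged over replicate tests. Plants were sprayed at roughly two weeks old and held on greenhouse benches.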

GALAP (Galium aparine) [2] = experiment: Postemergence herbicidal evaluation; type: in vivo
Method in brief: as §1

[3] = tested on: ABUTH (Abutilon theophrasti); experiment: Preemergence herbicidal evaluation; type: in vivo, Medic.; conditions: preemergence, rated 4-5 weeks after treatment
[4] = tested on: ECHCG (Echinochloa crus-galli); experiment: Preemergence herbicidal evaluation; type: in vivo, (L.) Beau; conditions: preemergence, rated 4-5 weeks after treatment
Method in brief: (§2)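 Visual 0-9 rating versus untreated control, taken four to five weeks post-treatment, scoring stand, vigor, malformation, size, chlorosis and overall appearance. Compound applied as aqueous acetone spray to freshly seeded soil cups, then kept under standard greenhouse care.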

SETVI (Setaria viridis) [5] = experiment: Preemergence herbicidal evaluation; type: in vivo, (L.) Beau; conditions: preemergence, rated 4-5 weeks after treatment
Method in brief: as §2

ZEAMX (Corn, Field) = experiment: Preemergence herbicidal evaluation; type: in vivo, Zea mays, L.; conditions: preemergence, rated 4-5 weeks after treatment
GALAP (Galium aparine) [6] = experiment: Preemergence herbicidal evaluation; type: in vivo; conditions: preemergence, rated 4-5 weeks after treatment
Method in brief: as §2

[7] = tested on: GLXMAW (Soybean, Williams); experiment: Postemergence herbicidal evaluation; type: in vivo, Glycine max, (L.) Merr. cv Williams
Method in brief: as §1

[8] = tested on: CASOB (Cassia obtusifolia); experiment: Preemergence herbicidal evaluation; type: in vivo, L.; conditions: preemergence, rated 4-5 weeks after treatment
Method in brief: as §2

[9] = tested on: AMBEL (Ambrosia artemisifolia); experiment: Preemergence herbicidal evaluation; type: in vivo, L.; conditions: preemergence, rated 4-5 weeks after treatment
Method in brief: as §2

[10] = tested on: CHEAL (Chenopodium album); experiment: Preemergence herbicidal evaluation; type: in vivo, L.; conditions: preemergence, rated 4-5 weeks after treatment
Method in brief: as §2

ORYSAT (Rice, Tebonnet) = experiment: Flooded paddy, post-transplant rice tolerance; type: in vivo, Oryza sativa, (L.) Tebonnet; conditions: flooded paddy, post-transplant rice, rated 3-4 weeks after treatment, 0-9 rating scale
Method in brief: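 Seedlings aged ten days are transplanted in pairs into undrained pots of silt loam, which are then flooded to a depth of 1.5 to 3 cm. After herbicide application the pots are kept in a greenhouse with the flood maintained. Plants are rated 0-9 by visual comparison with controls.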

[11] = tested on: IPOHE (Ipomoea hederacea); experiment: Postemergence herbicidal evaluation; type: in vivo, (L.) Jacq.
Method in brief: as §1

[12] = tested on: CYPSE (Cyperus serotinus); experiment: Flooded paddy, preemergence weed control; type: in vivo, Rottb.; conditions: rated 3-4 weeks after treatment, 0-9 rating scale
Method in brief: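 Herbicidal effect was scored visually on a 0–9 scale against an untreated control 3–4 weeks after treatment. Compounds were applied preemergence as 50/50 v/v aqueous/acetone mixtures into flood water (1.5–3 cm deep over silt loam), at roughly 0.0080 to 0.1250 kg/ha active ingredient.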

SETVI (Setaria viridis) [13] = experiment: Postemergence herbicidal evaluation; type: in vivo, (L.) Beau
Method in brief: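 Visual injury score (0-9: stand, vigor, malformation, size, chlorosis, overall appearance vs untreated control) taken four to five weeks post-spray. Two-week-old seedlings received about 0.0040 to 1.000 kg/ha active compound in acetone/water with 0.5% TWEEN 20.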

[14] = tested on: TRZAWR (Wheat, Winter, cv Riband); experiment: Postemergence herbicidal evaluation; type: in vivo, Triticum aestivum
Method in brief: as §1

[15] = tested on: MOOVA (Monochoria vaginalis); experiment: Flooded paddy, preemergence weed control; type: in vivo, Presl.; conditions: rated 3-4 weeks after treatment, 0-9 rating scale
Method in brief: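 Visual 0–9 ratings versus controls scored stand, vigor, malformation, size, chlorosis and overall appearance. Plants grew from seeds or propagating organs sown 0.5 cm deep in silt loam, with water held 1.5–3 cm above the soil for the whole test under greenhouse care.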

Structure (SMILES): Cn1c(C(F)(F)F)cc(=O)n(-c2ccc3snc(C4SCCN4C(=O)c4ccccc4)c3c2)c1=O (stereo not shown) [Compound 30, 3-benzoyl-2-[5-[3,6-dihydro-3-methyl-2,6-dioxo-4-(trifluoromethyl)-1(2H)-pyrimidinyl]-1,2-benzisothiazol-3-yl]thiazolidine]
- Postemergence herbicidal rating, ABUTH ([1]; rate 0.0320 kg/ha): 9.0
- Postemergence herbicidal rating, ABUTH ([1]; rate 0.0620 kg/ha): 9.0
- Postemergence herbicidal rating, GALAP (GALAP (Galium aparine) [2]; rate 0.0320 kg/ha): 1.0
- Postemergence herbicidal rating, GALAP (GALAP (Galium aparine) [2]; rate 0.0620 kg/ha): 3.0
- ABUTH preemergence herbicidal rating ([3]; Rate 0.0620 kg/ha): 9.0
- ABUTH preemergence herbicidal rating ([3]; Rate 0.1250 kg/ha): 9.0
- ABUTH preemergence herbicidal rating ([3]; Rate 0.2500 kg/ha): 9.0
- ECHCG preemergence herbicidal rating ([4]; Rate 0.0620 kg/ha): 0.0
- ECHCG preemergence herbicidal rating ([4]; Rate 0.1250 kg/ha): 4.0
- ECHCG preemergence herbicidal rating ([4]; Rate 0.2500 kg/ha): 5.0
- SETVI preemergence herbicidal rating (SETVI (Setaria viridis) [5]; Rate 0.0620 kg/ha): 1.0
- SETVI preemergence herbicidal rating (SETVI (Setaria viridis) [5]; Rate 0.1250 kg/ha): 8.0
- SETVI preemergence herbicidal rating (SETVI (Setaria viridis) [5]; Rate 0.2500 kg/ha): 9.0
- ZEAMX preemergence herbicidal rating (ZEAMX (Corn, Field); Rate 0.0620 kg/ha): 0.5
- ZEAMX preemergence herbicidal rating (ZEAMX (Corn, Field); Rate 0.1250 kg/ha): 3.5
- ZEAMX preemergence herbicidal rating (ZEAMX (Corn, Field); Rate 0.2500 kg/ha): 5.5
- GALAP preemergence herbicidal rating (GALAP (Galium aparine) [6]; Rate 0.0620 kg/ha): 0.0
- GALAP preemergence herbicidal rating (GALAP (Galium aparine) [6]; Rate 0.1250 kg/ha): 7.0
- GALAP preemergence herbicidal rating (GALAP (Galium aparine) [6]; Rate 0.2500 kg/ha): 9.0
- Postemergence herbicidal rating, GLXMAW ([7]; rate 0.0320 kg/ha): 6.0
- Postemergence herbicidal rating, GLXMAW ([7]; rate 0.0620 kg/ha): 6.5
- CASOB preemergence herbicidal rating ([8]; Rate 0.0620 kg/ha): 0.0
- CASOB preemergence herbicidal rating ([8]; Rate 0.1250 kg/ha): 1.5
- CASOB preemergence herbicidal rating ([8]; Rate 0.2500 kg/ha): 3.0
- AMBEL preemergence herbicidal rating ([9]; Rate 0.0620 kg/ha): 4.5
- AMBEL preemergence herbicidal rating ([9]; Rate 0.1250 kg/ha): 7.5
- AMBEL preemergence herbicidal rating ([9]; Rate 0.2500 kg/ha): 9.0
- CHEAL preemergence herbicidal rating ([10]; Rate 0.0620 kg/ha): 9.0
- CHEAL preemergence herbicidal rating ([10]; Rate 0.1250 kg/ha): 9.0
- CHEAL preemergence herbicidal rating ([10]; Rate 0.2500 kg/ha): 9.0
- herbicidal rating, ORYSAT (rice tolerance) (ORYSAT (Rice, Tebonnet); rate 0.0080 kg/ha): 0.0
- herbicidal rating, ORYSAT (rice tolerance) (ORYSAT (Rice, Tebonnet); rate 0.0320 kg/ha): 3.0
- herbicidal rating, ORYSAT (rice tolerance) (ORYSAT (Rice, Tebonnet); rate 0.1250 kg/ha): 5.0
- Postemergence herbicidal rating, IPOHE ([11]; rate 0.0320 kg/ha): 7.0
- Postemergence herbicidal rating, IPOHE ([11]; rate 0.0620 kg/ha): 9.0
- herbicidal rating, CYPSE ([12]; rate 0.0320 kg/ha): 0.0
- herbicidal rating, CYPSE ([12]; rate 0.1250 kg/ha): 3.0
- Postemergence herbicidal rating, SETVI (SETVI (Setaria viridis) [13]; rate 0.0320 kg/ha): 0.0
- Postemergence herbicidal rating, SETVI (SETVI (Setaria viridis) [13]; rate 0.0620 kg/ha): 4.0
- Postemergence herbicidal rating, TRZAWR ([14]; rate 0.0320 kg/ha): 4.5
- Postemergence herbicidal rating, TRZAWR ([14]; rate 0.0620 kg/ha): 4.5
- herbicidal rating, MOOVA ([15]; rate 0.0080 kg/ha): 0.0
- herbicidal rating, MOOVA ([15]; rate 0.0320 kg/ha): 8.5
- herbicidal rating, MOOVA ([15]; rate 0.1250 kg/ha): 9.0

Structure (SMILES): Cn1c(C(F)(F)F)cc(=O)n(-c2ccc3snc(C4OCCS4)c3c2)c1=O (stereo not shown) [Compound 31, 1-methyl-3-[3-(1,3-oxathiolan-2-yl)-1,2-benzisothiazol-5-yl]-6-(trifluoromethyl)uracil]
- Postemergence herbicidal rating, ABUTH ([1]; rate 0.0320 kg/ha): 9.0
- Postemergence herbicidal rating, ABUTH ([1]; rate 0.0620 kg/ha): 9.0
- Postemergence herbicidal rating, GALAP (GALAP (Galium aparine) [2]; rate 0.0320 kg/ha): 6.0
- Postemergence herbicidal rating, GALAP (GALAP (Galium aparine) [2]; rate 0.0620 kg/ha): 9.0
- ABUTH preemergence herbicidal rating ([3]; Rate 0.0620 kg/ha): 8.3
- ABUTH preemergence herbicidal rating ([3]; Rate 0.1250 kg/ha): 9.0
- ABUTH preemergence herbicidal rating ([3]; Rate 0.2500 kg/ha): 9.0
- ECHCG preemergence herbicidal rating ([4]; Rate 0.0620 kg/ha): 4.7
- ECHCG preemergence herbicidal rating ([4]; Rate 0.1250 kg/ha): 8.7
- ECHCG preemergence herbicidal rating ([4]; Rate 0.2500 kg/ha): 9.0
- SETVI preemergence herbicidal rating (SETVI (Setaria viridis) [5]; Rate 0.0620 kg/ha): 7.7
- SETVI preemergence herbicidal rating (SETVI (Setaria viridis) [5]; Rate 0.1250 kg/ha): 9.0
- SETVI preemergence herbicidal rating (SETVI (Setaria viridis) [5]; Rate 0.2500 kg/ha): 9.0
- ZEAMX preemergence herbicidal rating (ZEAMX (Corn, Field); Rate 0.0620 kg/ha): 4.7
- ZEAMX preemergence herbicidal rating (ZEAMX (Corn, Field); Rate 0.1250 kg/ha): 6.3
- ZEAMX preemergence herbicidal rating (ZEAMX (Corn, Field); Rate 0.2500 kg/ha): 8.5
- GALAP preemergence herbicidal rating (GALAP (Galium aparine) [6]; Rate 0.0620 kg/ha): 5.0
- GALAP preemergence herbicidal rating (GALAP (Galium aparine) [6]; Rate 0.1250 kg/ha): 9.0
- GALAP preemergence herbicidal rating (GALAP (Galium aparine) [6]; Rate 0.2500 kg/ha): 9.0
- Postemergence herbicidal rating, GLXMAW ([7]; rate 0.0320 kg/ha): 8.5
- Postemergence herbicidal rating, GLXMAW ([7]; rate 0.0620 kg/ha): 9.0
- CASOB preemergence herbicidal rating ([8]; Rate 0.0620 kg/ha): 5.0
- CASOB preemergence herbicidal rating ([8]; Rate 0.1250 kg/ha): 8.0
- CASOB preemergence herbicidal rating ([8]; Rate 0.2500 kg/ha): 9.0
- AMBEL preemergence herbicidal rating ([9]; Rate 0.0620 kg/ha): 9.0
- AMBEL preemergence herbicidal rating ([9]; Rate 0.1250 kg/ha): 9.0
- AMBEL preemergence herbicidal rating ([9]; Rate 0.2500 kg/ha): 9.0
- CHEAL preemergence herbicidal rating ([10]; Rate 0.0620 kg/ha): 9.0
- CHEAL preemergence herbicidal rating ([10]; Rate 0.1250 kg/ha): 9.0
- CHEAL preemergence herbicidal rating ([10]; Rate 0.2500 kg/ha): 9.0
- herbicidal rating, ORYSAT (rice tolerance) (ORYSAT (Rice, Tebonnet); rate 0.0080 kg/ha): 0.0
- herbicidal rating, ORYSAT (rice tolerance) (ORYSAT (Rice, Tebonnet); rate 0.0320 kg/ha): 7.5
- herbicidal rating, ORYSAT (rice tolerance) (ORYSAT (Rice, Tebonnet); rate 0.1250 kg/ha): 9.0
- Postemergence herbicidal rating, IPOHE ([11]; rate 0.0320 kg/ha): 9.0
- Postemergence herbicidal rating, IPOHE ([11]; rate 0.0620 kg/ha): 9.0
- herbicidal rating, CYPSE ([12]; rate 0.0320 kg/ha): 4.0
- herbicidal rating, CYPSE ([12]; rate 0.1250 kg/ha): 5.0
- Postemergence herbicidal rating, SETVI (SETVI (Setaria viridis) [13]; rate 0.0320 kg/ha): 3.0
- Postemergence herbicidal rating, SETVI (SETVI (Setaria viridis) [13]; rate 0.0620 kg/ha): 7.0
- Postemergence herbicidal rating, TRZAWR ([14]; rate 0.0320 kg/ha): 5.0
- Postemergence herbicidal rating, TRZAWR ([14]; rate 0.0620 kg/ha): 5.5
- herbicidal rating, MOOVA ([15]; rate 0.0080 kg/ha): 5.0
- herbicidal rating, MOOVA ([15]; rate 0.0320 kg/ha): 9.0
- herbicidal rating, MOOVA ([15]; rate 0.1250 kg/ha): 9.0
